The values that follow come from US20080207738A1, “DRUG COMBINATIONS TO TREAT DRUG RESISTANT TUMORS” (priority 2007, published 2008).

A short description of one data set: Solubility in water. The data set is classed as physicochemical. The text has this: In one embodiment, CCcompound104, CCcompound26 and EA may be administered orally. The two CC compounds are water-soluble, while EA is first dissolved in absolute ethanol and diluted in water or a suitable physiologically compatible liquid solvent. In one embodiment of the invention, the CC compounds and EA are in the form of a tablet, gel capsule, a liquid, or the like. In each case, the compounds are mixed with one or more carriers chosen by one having ordinary skill in the art to best suit the goal of treatment. In addition to the active compounds, the tablet or gel may contain any component that is presently used in the pharmaceutical field to ensure firmness, stability, solubility and appropriate taste. Any additional component of the tablet or gel will be chemically inert; i.e., it will not participate in a chemical reaction with the active compounds or the other additives. Each compound may be prepared for oral consumption separately, or the tablet, gel capsule or liquid may contain any of the two components or all three components. Tablets containing 25 mg or 50 mg of EA can be purchased from Merck.

The subject of another data set is parent L5178 cells. The data set can be described thus: Rhodamine 123 cellular content in parent L5178 cells (flow cytometry). The data set is classed as cell-based, mouse. Conditions: data not shown. How it is done:
The L5178 mouse T cell lymphoma parent cell line and its MDR1 expressing subline (L5178/MDR1) were used. […] The cells were adjusted to a concentration of 2×10^6 cells per ml, then resuspended in serum-free McCoy's 5A medium and 0.5-ml portions distributed into small (1.2-ml) Eppendorf centrifuge tubes. After adding various concentrations of test compounds as listed below in Table 2, the samples were incubated for 10 min at room temperature (22° C.). […] After centrifugation (450 g, 10 min) the pelleted cells were washed twice with PBS and resuspended in 0.5-ml of PBS for cytometry. The fluorescence intensity of the cell population was measured by flow cytometry using Beckton Dickinson's FACScan instrument.
The percentage mean fluorescence intensity (FL-1) was calculated for the treated parental and MDR1 cell lines as compared with that of untreated cells. […] Other values measured are Forward scattered count (FSC) and site scattered count (SSC).
Background: A flow cytometer gives signals particle by particle.

For the compound `C[Si](C)(C)COc1ccc(C(=O)OCCN2CCN(CCCOC(=O)C3c4ccccc4Oc4ccccc43)CC2)cc1.Cl.Cl` [CCcompound104], the solubility in water entry in “Solubility in water” is reported as “water-soluble”. Further, in the data set on parent L5178 cells, the “effect on the cellular content of Rhodamine 123” value is recorded as “no detectable effects”.
